This is an account of results in ChEMBL document CHEMBL4665806, “Structure-based optimisation of orally active & reversible MetAP-2 inhibitors maintaining a tight 'molecular budget'” (Bioorg Med Chem Lett, 2020).

pIC50: −log10 of the molar value. ≈ marks a conversion by molar mass, not a printed value. Calls of active or inactive are those of the source.

Data set [1] is described as follows: Chromatographic hydrophobicity index, log D of the compound at pH 7.4. Format: physicochemical. The following applies: buffer.
Data set [2] can be described thus: Intrinsic clearance in rat. The format is ADME.
Data set [3] in a line: Intrinsic clearance in human. Format: ADME.
For data set [4], the system named is Mus musculus. In words: Antiinflammatory activity in antigen KLH-TNP- treated mouse model of B-cell adaptive immunity assessed as inhibition of secondary response at 3 mg/kg, po administered twice daily from day 21 to day 31 relative to control. The format is functional. On the set-up: scale not given: the % may be the effect or the level left. The following applies: time 10 day.

The nature of data set [5]: Half life in po dosed mouse. The format is ADME, organism-based. The following applies: in vivo.
Data set [6] relates to Mus musculus. In words: Antiinflammatory activity in antigen KLH-TNP- treated mouse model of B-cell adaptive immunity assessed as inhibition of secondary response at 10 mg/kg, po administered twice daily from day 21 to day 31 relative to control. Format: functional. On the set-up: scale not given: the % may be the effect or the level left. The following applies: time 10 day.

The nature of data set [7]: Solubility of the compound. The format is physicochemical.
Data set [8] relates to Mus musculus. In words: Antiinflammatory activity in antigen KLH-TNP- treated po dosed mouse model of B-cell adaptive immunity assessed as inhibition of secondary response administered twice daily from day 21 to day 31. The format is functional, organism-based. The following applies: dose mg/kg 3-30, time 10.0 day.
The target of data set [9] is Methionine aminopeptidase 2 (Mus musculus, UniProt O08663). In words: Inhibition of MetAP2 in mouse B cells assessed as reduction in IgG secretion. The format is cell-based, B-cell.
In data set [10] the test system is Mus musculus. In words: Antiinflammatory activity in anti-KLH treated mouse model of B-cell adaptive immunity assessed as inhibition of secondary response at […] mg/kg, po administered twice daily from day 21 to day 31 relative to control. The following applies: dose 3.0 mg/kg, time 10.0 day. The format is functional, organism-based.
The nature of data set [11]: Oral bioavailability in mouse at 10 mg/kg. The format is ADME, organism-based. The following applies: in vivo.
Data set [12] has as its system Mus musculus. In words: Antiinflammatory activity in antigen KLH-TNP- treated mouse model of B-cell adaptive immunity assessed as inhibition of secondary response at 30 mg/kg, po administered twice daily from day 21 to day 31 relative to control. On the set-up: scale not given: the % may be the effect or the level left. The format is functional. The following applies: dose 3 mg/kg; time 10 day.

Data set [13] in a line: Volume of distribution at steady state in po dosed mouse. Format: ADME, organism-based. The following applies: in vivo.
Data set [14] can be described thus: Clearance in po dosed mouse. The following applies: in vivo. Format: ADME, organism-based.

Sequence of Methionine aminopeptidase 2 (O08663 whole entry): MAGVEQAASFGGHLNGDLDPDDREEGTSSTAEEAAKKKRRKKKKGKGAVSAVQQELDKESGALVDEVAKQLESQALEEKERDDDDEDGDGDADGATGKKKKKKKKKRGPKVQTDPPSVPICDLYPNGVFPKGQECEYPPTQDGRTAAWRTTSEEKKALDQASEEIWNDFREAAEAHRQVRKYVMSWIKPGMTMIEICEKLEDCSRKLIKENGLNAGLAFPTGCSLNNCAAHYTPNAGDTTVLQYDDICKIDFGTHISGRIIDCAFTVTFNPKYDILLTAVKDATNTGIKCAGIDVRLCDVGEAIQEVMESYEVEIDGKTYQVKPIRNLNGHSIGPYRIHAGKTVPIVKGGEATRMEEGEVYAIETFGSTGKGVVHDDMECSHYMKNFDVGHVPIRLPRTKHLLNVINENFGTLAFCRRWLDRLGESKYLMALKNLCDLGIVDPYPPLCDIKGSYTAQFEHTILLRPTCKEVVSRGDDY

As a reminder, the chromatographic logD is lipophilicity estimated from chromatographic retention. What is called CLint scaled is the capacity of the preparation to metabolise the compound, expressed as a volume cleared per time. `CC(C)Oc1cc(N2CCNCC2)ccc1-c1c(C(N)=O)[nH]c2cc(F)c(Cl)cc12` gave a chromatographic logD in data set [1] of 3.1. Further, the CLint scaled in [2] and in data set [3] was less than 1 mL/min/kg each time.
As a reminder, the half-life is the time needed for the level to fall by half in the phase considered. Broadly, the solubility is the dissolved amount per volume that the medium holds. By pIC50 is commonly meant −log10 of the IC50, conventionally taken in molar units. By bioavailability is commonly meant the share of a dose that reaches the circulation, judged against a reference dose that is usually intravenous. For orientation: CL/F means clearance divided by bioavailability, as obtained after extravascular dosing. In data set [1], `CC(C)Oc1cc(N2CCNCC2)ccc1-c1c(C(N)=O)[nH]c2cc(F)c(F)cc12` yielded a chromatographic logD of 2.8. Also, the Activity is 15% in data set [4], 39% in data set [6], “Dose-dependent effect” in data set [8] and 89% in [12]. The compound also gave a half-life in data set [5] of 4.5 h. In addition, the CLint scaled in [2] and in [3] was less than 1 mL/min/kg throughout. This compound also returned a solubility in [7] of 629 µg/mL (≈ 1520 µM). In addition, in data set [9], the pIC50 is 7.40. In addition, in data set [10], the result was Active. In data set [11], this compound yielded a bioavailability of 89%. Besides, the Vdss in data set [13] was 7.7 L/kg. Moreover, the CL/F in data set [14] amounted to 45 mL/min/kg.
